Reference: patent publication US12365674B2, “Inhibitors of histone deacetylase useful for the treatment or prevention of HIV infection” (Merck Sharp & Dohme LLC, priority 2019, dated 2025)
Where two headings read alike, the source gives them in different places.

Tested on: KARN cells (Jurkat 2C4)
Experiment: KARN assay (luciferase induction in latently HIV-infected Jurkat 2C4 cells)
Type: cell-based
Conditions: ~20 hr, luciferase induction relative to 2 μM SAHA (100%)
Method: KARN cells (Jurkat 2C4) were licensed from the laboratory of Dr. John Karn, Case Western Reserve University, School of Medicine. The details regarding this cell line are published (Pearson, R., Kin, Y. K., Hokello, J., Lassen, K., Friedman, J., Tyagi, M., Karn, J., 2008, J. Virol. 82:12291-12303). The cells were grown in a T175 flask (Thermo Fisher, catalog number 159910) in RPMI 1640 containing L-glutamine and phenol red (Life Technologies, catalog number 11875-085), 5% heat inactivated fetal bovine serum (FBS; Life Technologies, catalog number 10100-147) and 100 μg/ml Penicillin-Streptomycin (Life Technologies, catalog number 15140-122) at 37° C. An atmosphere of 5% CO2 and 90% humidity was used for all culture work. Cells were split and reseeded into T175 flasks at a density of 0.2×10^6 cells/ml, in 40 ml of media, every 3-4 days.
Day 1: After the 3-4 day growth period, the cells were transferred from the T175 flask to a 50 ml conical tube and gently pelleted at 1000 rpm for 5 minutes. The supernatant was removed and the cells gently resuspended in assay media RPMI 1640 medium containing L-glutamine but without Phenol Red (Life Technologies, catalog number 11835-030), 5% FBS and 100 μg/ml Penicillin-Streptomycin, and then reseeded such that the original flask is now divided into two T175 flasks. These flasks were returned to the incubator.
Day 2: Cell Preparation: The next day, the cells were transferred from each T175 flask to an individual 50 ml conical tube and gently pelleted at 1000 rpm for 5 minutes. The cells were gently resuspended in assay media (30 ml) and pelleted again. The cell pellets were each resuspended in 30 ml of RPMI 1640 medium containing L-glutamine but without Phenol Red, 100 μg/ml Penicillin-Streptomycin and containing either 0.1% or 5% normal human serum (NHS; Biospecialty, Colmar, PA, catalog number 115-00 Anticoagulant free). The cells were counted using the ViCell (Beckman Coulter, Brea, CA) and diluted as necessary. A Multidrop (Combi, Thermo Scientific, Waltham, MA) with a sterile head was used to seed the cells into the wells of a 384-well solid black plate with lid (Perkin Elmer, Waltham, MA, catalog number 6007660) at 4000 cells/30 μl/well for the 5% NHS assay media and 6000 cells/30 μl/well for 0.1% NHS assay. The plates were covered and returned to the incubator prior to compound addition.
Compound Preparation: Solutions of control inhibitor suberoylanilide hydroxamic acid (SAHA; Sigma, catalog number SML0061) and test compounds in 100% DMSO were titrated into 384-well polypropylene plates (Labcyte, San Jose, CA, catalog number P-05525) using a 20-point dose response and 2-fold dilutions. The reference compounds, DMSO and SAHA were then added to the compound plate. Using the Access system (Labcyte), 120 nl of these inhibitor and control solutions were added to the individual wells of the plates containing the cells, and the plates were then returned to the incubator for ˜20 hr (range from 18-24 hr). The final high concentration for SAHA and the test compounds in the assays was 40 μM. The final DMSO concentration in all wells was 0.4%. The minimal induction reference compound used was DMSO and the maximal induction reference compound used was SAHA (2 μM final concentration in the assay).
Day 3: The luciferase detection reagent was prepared by transferring the contents of one bottle of Steady-Glo buffer to one bottle of Steady-Glo substrate (Steady-Glo Luciferase Assay System, Promega, Madison, […], catalog number E2520), followed by gently mixing until the substrate was thoroughly dissolved and the solution was equilibrated to room temperature. The cell culture assay plates were removed from the incubator and brought to room temperature (15 min). The Steady-Glo Reagent was added to the plates (30 μl/well), which were then covered with a black lid and incubated for 10 minutes at room temperature. […]

[1] = 0.1% normal human serum, 6000 cells/well, read-out: Karn 0.1% NHS
[2] = 5% normal human serum, 4000 cells/well, read-out: Karn 5% NHS

CN1CC(C(=O)N[C@@H](COCCCC(=O)c2ccon2)c2[nH]c(-c3ccc(F)cc3)nc2Cl)C1 [Compound 16, N-[(1R)-1-[4-chloro-2-(4-fluorophenyl)-1H-imidazol-5-yl]-2-(4-isoxazol-3-yl-4-oxobutoxy)ethyl]-1-methylazetidine-3-carboxamide]
EC50 [1]: 979 nM | EC50 [2]: 1100 nM

CNC(=O)C(=O)CCCOC[C@H](NC(=O)C12CCN(CC1)CC2)c1ncc(-c2cc3ccccc3nc2OC)[nH]1 [Compound 9, N-[(1R)-1-[5-(2-methoxyquinolin-3-yl)-1H-imidazol-2-yl]-2-{[5-(methylamino)-4,5-dioxopentyl]oxy}ethyl]-1-azabicyclo[2.2.2]octane-4-carboxamide]
EC50 [1]: 232 nM | EC50 [2]: 466 nM

CN1CCC2(CC1)C[C@@H]2C(=O)N[C@@H](COCCCC(=O)c1ccon1)c1[nH]c(-c2ccc(F)cc2)nc1Cl [Compound 18, (1S)-N-[(1R)-1-[4-chloro-2-(4-fluorophenyl)-1H-imidazol-5-yl]-2-(4-isoxazol-3-yl-4-oxobutoxy)ethyl]-6-methyl-6-azaspiro[2.5]octane-1-carboxamide]
EC50 [1]: 77.7 nM | EC50 [2]: 109 nM

Cc1ccc2cc(-c3cnc([C@H](CSCCCC(=O)c4ncco4)NC(=O)[C@H]4CC45CCN(C)CC5)[nH]3)ccc2n1 [Compound 21, (1S)-6-methyl-N-[(1R)-1-[5-(2-methylquinolin-6-yl)-1H-imidazol-2-yl]-2-{[4-(1,3-oxazol-2-yl)-4-oxobutyl]sulfanyl}ethyl]-6-azaspiro[2.5]octane-1-carboxamide]
EC50 [1]: 60.7 nM | EC50 [2]: 64.4 nM

CCC(=O)CCCOC[C@H](NC(=O)C12CCN(CC1)CC2)c1ncc(-c2cc3ccccc3nc2OC)[nH]1 [Compound 6, N-{(1R)-1-[5-(2-methoxyquinolin-3-yl)-1H-imidazol-2-yl]-2-[(4-oxohexyl)oxy]ethyl}-1-azabicyclo[2.2.2]octane-4-carboxamide]
EC50 [1]: 8970 nM | EC50 [2]: 14500 nM

CN(C)CC(=O)N[C@@H](COCCCC(=O)c1ccon1)c1[nH]c(-c2ccc(F)cc2)nc1Cl [Compound 17, N-[(1R)-1-[4-chloro-2-(4-fluorophenyl)-1H-imidazol-5-yl]-2-(4-isoxazol-3-yl-4-oxobutoxy)ethyl]-N~2~,N~2~- dimethylglycinamide]
EC50 [1]: 1490 nM | EC50 [2]: 2420 nM

CNC(=O)C(=O)CCCOC[C@H](NC(=O)c1cncs1)c1ncc(-c2cc3ccccc3nc2OC)[nH]1 [Compound 8, N-[(1R)-1-[5-(2-methoxyquinolin-3-yl)-1H-imidazol-2-yl]-2-{[5-(methylamino)-4,5-dioxopentyl]oxy}ethyl]-1,3-thiazole-5-carboxamide]
EC50 [1]: 80.2 nM | EC50 [2]: 408 nM

COc1nc2ccccc2cc1-c1cnc([C@H](COCCCC(=O)c2ncco2)NC(=O)CN(C)C)[nH]1 [Compound 13, N-{(1R)-1-[5-(2-methoxyquinolin-3-yl)-1H-imidazol-2-yl]-2-[4-(1,3-oxazol-2-yl)-4-oxobutoxy]ethyl}-N~2~,N~2~- dimethylglycinamide]
EC50 [1]: 424 nM | EC50 [2]: 854 nM

COc1nc2ccccc2cc1-c1cnc([C@H](COCCCC(=O)c2ncco2)NC(=O)c2cncs2)[nH]1 [Compound 10, N-{(1R)-1-[5-(2-methoxyquinolin-3-yl)-1H-imidazol-2-yl]-2-[4-(1,3-oxazol-2-yl)-4-oxobutoxy]ethyl}-1,3-thiazole-5-carboxamide]
EC50 [1]: 295 nM | EC50 [2]: 1500 nM

COc1nc2ccccc2cc1-c1cnc([C@H](COCCCC(=O)c2ncco2)NC(=O)[C@H]2CC23CCN(C)CC3)[nH]1 [Compound 11, (1S)-N-{(1R)-1-[5-(2-methoxyquinolin-3-yl)-1H-imidazol-2-yl]-2-[4-(1,3-oxazol-2-yl)-4-oxobutoxy]ethyl}-6-methyl-6-azaspiro[2.5]octane-1-carboxamide]
EC50 [1]: 59.8 nM | EC50 [2]: 218 nM

CCC(=O)CCCOC[C@H](NC(=O)[C@H]1CC12CCN(CC)CC2)c1ncc(-c2cc3ccccc3nc2OC)[nH]1 [Compound 7, (1S)-6-ethyl-N-{(1R)-1-[5-(2-methoxyquinolin-3-yl)-1H-imidazol-2-yl]-2-[(4-oxohexyl)oxy]ethyl}-6-azaspiro[2.5]octane-1-carboxamide]
EC50 [1]: 2350 nM | EC50 [2]: 3500 nM

COc1cc2nc(C)ccc2cc1-c1cnc([C@H](COCCCC(=O)c2cc(C)on2)NC(=O)C2CN(C)C2)[nH]1 [Compound 19, N-{(1R)-1-[5-(7-methoxy-2-methylquinolin-6-yl)-1H-imidazol-2-yl]-2-[4-(5-methylisoxazol-3-yl)-4-oxobutoxy]ethyl}-1-methylazetidine-3-carboxamide]
EC50 [1]: 374 nM | EC50 [2]: 449 nM

COc1nc2ccccc2cc1-c1cnc([C@@H](N)COCCCC(=O)c2ncco2)[nH]1 [Compound 1, (R)-4-(2-amino-2-(5-(2-methoxyquinolin-3-yl)-1H-imidazol-2-yl)ethoxy)-1-(oxazol-2-yl)butan-1-one]
EC50 [1]: 11700 nM

COc1nc2ccccc2cc1-c1cnc([C@H](COCCCC(=O)c2ccon2)NC(=O)CN(C)C)[nH]1 [Compound 14, N-{(1R)-2-(4-isoxazol-3-yl-4-oxobutoxy)-1-[5-(2-methoxyquinolin-3-yl)-1H-imidazol-2-yl]ethyl}-N~2~,N~2~- dimethylglycinamide]
EC50 [1]: 83.8 nM | EC50 [2]: 252 nM

CN1CC(C(=O)N[C@@H](COCCCC(=O)c2ccon2)c2ncc(-c3ccccc3F)[nH]2)C1 [Compound 15, N-[(1R)-1-[5-(2-fluorophenyl)-1H-imidazol-2-yl]-2-(4-isoxazol-3-yl-4-oxobutoxy)ethyl]-1-methylazetidine-3-carboxamide]
EC50 [1]: 539 nM | EC50 [2]: 548 nM

COc1nc2ccccc2cc1-c1cnc([C@H](COCCCC(=O)c2ncco2)NC(=O)C23CCN(CC2)CC3)[nH]1 [Compound 12, N-{(1R)-1-[5-(2-methoxyquinolin-3-yl)-1H-imidazol-2-yl]-2-[4-(1,3-oxazol-2-yl)-4-oxobutoxy]ethyl}-1-azabicyclo[2.2.2]octane-4-carboxamide]
EC50 [1]: 252 nM | EC50 [2]: 562 nM

COc1cc2nc(C)ccc2cc1-c1cnc([C@H](COCCCC(=O)c2cc(C)on2)NC(=O)[C@H]2CC23CCN(C)CC3)[nH]1 [Compound 20, (1S)-N-{(1R)-1-[5-(7-methoxy-2-methylquinolin-6-yl)-1H-imidazol-2-yl]-2-[4-(5-methylisoxazol-3-yl)-4-oxobutoxy]ethyl}-6-methyl-6-azaspiro[2.5]octane-1-carboxamide]
EC50 [1]: 40.5 nM | EC50 [2]: 55.1 nM
